Assay results published in PubChem BioAssay (NCI).
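Each compound was tested at five concentrations against cells in 96-well plates for 48 hours. Definition used: TGI = concentration required for complete inhibition of growth.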

What was measured:
Test in all cases: growth of human tumour cells (NCI), 48 h
MDA-MB-231 breast = test system: MDA-MB-231 breast
COLO 205 colon = test system: COLO 205 colon
HCT-116 colon = test system: HCT-116 colon
T-47D breast = test system: T-47D breast
SF-539 CNS = test system: SF-539 CNS
ACHN renal = test system: ACHN renal
A498 renal = test system: A498 renal
HOP-92 NSCLC = test system: HOP-92 NSCLC
SW-620 colon = test system: SW-620 colon
EKVX NSCLC = test system: EKVX NSCLC
SK-OV-3 ovarian = test system: SK-OV-3 ovarian
HOP-62 NSCLC = test system: HOP-62 NSCLC
MCF7 breast = test system: MCF7 breast
BT-549 breast = test system: BT-549 breast
M14 melanoma = test system: M14 melanoma
SF-268 CNS = test system: SF-268 CNS
OVCAR-3 ovarian = test system: OVCAR-3 ovarian
PC-3 prostate = test system: PC-3 prostate
NCI-H226 lung = test system: NCI-H226 lung
U251 CNS = test system: U251 CNS
HL-60(TB) leukemia = test system: HL-60(TB) leukemia
UACC-257 melanoma = test system: UACC-257 melanoma
K-562 leukemia = test system: K-562 leukemia
SK-MEL-28 melanoma = test system: SK-MEL-28 melanoma
SK-MEL-2 melanoma = test system: SK-MEL-2 melanoma
IGROV1 ovarian = test system: IGROV1 ovarian
KM12 colon = test system: KM12 colon
SN12C renal = test system: SN12C renal
HCC-2998 colon = test system: HCC-2998 colon
SK-MEL-5 melanoma = test system: SK-MEL-5 melanoma
SF-295 CNS = test system: SF-295 CNS
OVCAR-5 ovarian = test system: OVCAR-5 ovarian
CCRF-CEM leukemia = test system: CCRF-CEM leukemia
TK-10 renal = test system: TK-10 renal
NCI/ADR-RES ovarian = test system: NCI/ADR-RES ovarian
MDA-N = test system: MDA-N
DU-145 prostate = test system: DU-145 prostate
RPMI-8226 leukemia = test system: RPMI-8226 leukemia
CAKI-1 renal = test system: CAKI-1 renal
LOX IMVI melanoma = test system: LOX IMVI melanoma
MOLT-4 leukemia = test system: MOLT-4 leukemia
HCT-15 colon = test system: HCT-15 colon
A549 NSCLC = test system: A549 NSCLC
OVCAR-4 ovarian = test system: OVCAR-4 ovarian
UO-31 renal = test system: UO-31 renal
786-0 renal = test system: 786-0 renal
MDA-MB-435 = test system: MDA-MB-435
SR leukemia = test system: SR leukemia
SNB-75 CNS = test system: SNB-75 CNS
SNB-19 CNS = test system: SNB-19 CNS
NCI-H522 lung = test system: NCI-H522 lung
OVCAR-8 ovarian = test system: OVCAR-8 ovarian
HS 578T breast = test system: HS 578T breast
RXF 393 renal = test system: RXF 393 renal
UACC-62 melanoma = test system: UACC-62 melanoma
NCI-H23 lung = test system: NCI-H23 lung
HT29 colon = test system: HT29 colon
NCI-H460 lung = test system: NCI-H460 lung
MALME-3M melanoma = test system: MALME-3M melanoma

## OC1(c2ccc(Cl)cc2)c2ccccc2-c2nc3ccccc3n21 (stereo unspecified)
MDA-MB-231 breast
  TGI: > 100 µM
COLO 205 colon
  TGI: > 100 µM
HCT-116 colon
  TGI: > 100 µM
T-47D breast
  TGI: > 100 µM
SF-539 CNS
  TGI: > 100 µM
ACHN renal
  TGI: > 100 µM
A498 renal
  TGI: > 100 µM
HOP-92 NSCLC
  TGI: > 100 µM
SW-620 colon
  TGI: > 100 µM
EKVX NSCLC
  TGI: > 100 µM
SK-OV-3 ovarian
  TGI: > 100 µM
HOP-62 NSCLC
  TGI: > 100 µM
MCF7 breast
  TGI: > 100 µM
BT-549 breast
  TGI: > 100 µM
M14 melanoma
  TGI: > 100 µM
SF-268 CNS
  TGI: > 100 µM
OVCAR-3 ovarian
  TGI: > 100 µM
PC-3 prostate
  TGI: > 100 µM
NCI-H226 lung
  TGI: > 100 µM
U251 CNS
  TGI: > 100 µM
HL-60(TB) leukemia
  TGI: > 100 µM
UACC-257 melanoma
  TGI: > 100 µM
K-562 leukemia
  TGI: > 100 µM
SK-MEL-28 melanoma
  TGI: > 100 µM
SK-MEL-2 melanoma
  TGI: > 100 µM
IGROV1 ovarian
  TGI: > 100 µM
KM12 colon
  TGI: > 100 µM
SN12C renal
  TGI: > 100 µM
HCC-2998 colon
  TGI: > 100 µM
SK-MEL-5 melanoma
  TGI: > 100 µM
SF-295 CNS
  TGI: > 100 µM
OVCAR-5 ovarian
  TGI: > 100 µM
CCRF-CEM leukemia
  TGI: > 100 µM
TK-10 renal
  TGI: > 100 µM
NCI/ADR-RES ovarian
  TGI: > 100 µM
MDA-N
  TGI: > 100 µM
DU-145 prostate
  TGI: > 100 µM
RPMI-8226 leukemia
  TGI: > 100 µM
CAKI-1 renal
  TGI: > 100 µM
LOX IMVI melanoma
  TGI: > 100 µM
MOLT-4 leukemia
  TGI: > 100 µM
HCT-15 colon
  TGI: > 100 µM
A549 NSCLC
  TGI: > 100 µM
OVCAR-4 ovarian
  TGI: > 100 µM
UO-31 renal
  TGI: > 100 µM
786-0 renal
  TGI: > 100 µM
MDA-MB-435
  TGI: > 100 µM
SR leukemia
  TGI: > 100 µM
SNB-75 CNS
  TGI: > 100 µM
SNB-19 CNS
  TGI: 97.3 µM
NCI-H522 lung
  TGI: > 100 µM
OVCAR-8 ovarian
  TGI: > 100 µM
HS 578T breast
  TGI: > 100 µM
RXF 393 renal
  TGI: 55 µM
UACC-62 melanoma
  TGI: > 100 µM
NCI-H23 lung
  TGI: > 100 µM
HT29 colon
  TGI: > 100 µM
NCI-H460 lung
  TGI: > 100 µM

## CC1OC2OC3C(OCC(O)C3O)OC(=O)[C@]34CCC(C)(C)CC3C3=CCC5[C@@]6(C)C[C@H](O)[C@H](OC7OC(CO)C(O)C(O)C7OC7OCC(OC(=O)CC(C)(O)CC(=O)OC1C(O)C2O)C(O)C7O)[C@@](C)(CO)C6CC[C@@]5(C)[C@]3(C)CC4 (stereo partly specified)
MDA-MB-231 breast
  TGI: 20.6 µM
COLO 205 colon
  TGI: 4.39 µM
HCT-116 colon
  TGI: 17.4 µM
T-47D breast
  TGI: 17.6 µM
SF-539 CNS
  TGI: 26 µM
ACHN renal
  TGI: 18.3 µM
HOP-92 NSCLC
  TGI: 6.03 µM
SW-620 colon
  TGI: 19 µM
SK-OV-3 ovarian
  TGI: 10.4 µM
HOP-62 NSCLC
  TGI: 6.8 µM
MCF7 breast
  TGI: 26.4 µM
BT-549 breast
  TGI: 24.8 µM
M14 melanoma
  TGI: 8.87 µM
SF-268 CNS
  TGI: 9.2 µM
OVCAR-3 ovarian
  TGI: 20.7 µM
PC-3 prostate
  TGI: 6.72 µM
NCI-H226 lung
  TGI: 35.9 µM
U251 CNS
  TGI: 12.6 µM
HL-60(TB) leukemia
  TGI: 4.11 µM
UACC-257 melanoma
  TGI: 6.69 µM
SK-MEL-28 melanoma
  TGI: 4.97 µM
SK-MEL-2 melanoma
  TGI: 18.8 µM
IGROV1 ovarian
  TGI: 16.9 µM
KM12 colon
  TGI: 10.5 µM
SN12C renal
  TGI: 21.1 µM
HCC-2998 colon
  TGI: 5.12 µM
SK-MEL-5 melanoma
  TGI: 16.3 µM
SF-295 CNS
  TGI: 12.4 µM
OVCAR-5 ovarian
  TGI: 7 µM
CCRF-CEM leukemia
  TGI: 24 µM
TK-10 renal
  TGI: 19.2 µM
NCI/ADR-RES ovarian
  TGI: 28.3 µM
MDA-N
  TGI: 13.8 µM
DU-145 prostate
  TGI: 14.7 µM
RPMI-8226 leukemia
  TGI: 17.7 µM
LOX IMVI melanoma
  TGI: 21.7 µM
MOLT-4 leukemia
  TGI: 23.1 µM
HCT-15 colon
  TGI: 19.2 µM
A549 NSCLC
  TGI: 10.7 µM
UO-31 renal
  TGI: 18.5 µM
786-0 renal
  TGI: 25.6 µM
MDA-MB-435
  TGI: 19.1 µM
MALME-3M melanoma
  TGI: 12.3 µM
SR leukemia
  TGI: 20.3 µM
SNB-75 CNS
  TGI: 18.4 µM
SNB-19 CNS
  TGI: 21.3 µM
NCI-H522 lung
  TGI: 12 µM
OVCAR-8 ovarian
  TGI: 15.8 µM
HS 578T breast
  TGI: 21.2 µM
UACC-62 melanoma
  TGI: 14.4 µM
NCI-H23 lung
  TGI: 10.1 µM
HT29 colon
  TGI: 10.4 µM
NCI-H460 lung
  TGI: 23.9 µM
